Holding throughout (experiment): relative viability (nuclei count vs DMSO), 5 days (fraction); higher = more cells survive
Compound in the assay “Dabrafenib + Lapatinib”: CC(C)(C)c1nc(-c2cccc(NS(=O)(=O)c3c(F)cccc3F)c2F)c(-c2ccnc(N)n2)s1 [Dabrafenib] + CS(=O)(=O)CCNCc1ccc(-c2ccc3ncnc(Nc4ccc(OCc5cccc(F)c5)c(Cl)c4)c3c2)o1 [Lapatinib] (partner 2 µM)
Put shortly:
(§1)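 Lung cancer cell lines were pin-tool dosed in 1536-well plates on the day after seeding, with either a lone drug or a fixed anchor-drug dose plus five library-drug doses (not always all listed) in √10 steps. Nuclei were counted on 4× images after 5 days. Relative viability is the ratio of treated-well to vehicle-well nuclei counts, with each value a median of duplicate plates.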

Compound in the assay “VX-702 + Palbociclib”: NC(=O)c1ccc(N(C(N)=O)c2c(F)cccc2F)nc1-c1ccc(F)cc1F [VX-702] + CC(=O)c1c(C)c2cnc(Nc3ccc(N4CCNCC4)cn3)nc2n(C2CCCC2)c1=O [Palbociclib] (partner 0.5 µM)
Put shortly:
as §1

Compound in the assay “VX-702 + Luminespib”: NC(=O)c1ccc(N(C(N)=O)c2c(F)cccc2F)nc1-c1ccc(F)cc1F [VX-702] + CCNC(=O)c1noc(-c2cc(C(C)C)c(O)cc2O)c1-c1ccc(CN2CCOCC2)cc1 [Luminespib] (partner 0.01 µM)
Put shortly: as §1

Compound in the assay “VX-702 + Phenformin”: NC(=O)c1ccc(N(C(N)=O)c2c(F)cccc2F)nc1-c1ccc(F)cc1F [VX-702] + N=C(N)NC(=N)NCCc1ccccc1 [Phenformin] (partner 250 µM)
Put shortly:
as §1

As for EBC-1, the relative viability with Dabrafenib + Lapatinib (first compound 0.009487 µM) amounted to 0.233; with Dabrafenib + Lapatinib (first compound 0.03 µM), 0.223; with Dabrafenib + Lapatinib (first compound 0.09487 µM) it was 0.23; with Dabrafenib + Lapatinib (first compound 0.3 µM), 0.274.

Regarding EKVX, the relative viability with Dabrafenib + Lapatinib (first compound 0.003 µM) is 0.172; with Dabrafenib + Lapatinib (first compound 0.009487 µM) it was 0.245; with Dabrafenib + Lapatinib (first compound 0.03 µM) it was 0.192; with Dabrafenib + Lapatinib (first compound 0.09487 µM) it was 0.203; in the assay with Dabrafenib + Lapatinib (first compound 0.3 µM), 0.321; with VX-702 + Palbociclib (first compound 0.02 µM) it was 0.355. For the same cell line, the relative viability with VX-702 + Palbociclib (first compound 0.2 µM) amounted to 0.38; with VX-702 + Palbociclib (first compound 0.6325 µM), 0.343; with VX-702 + Palbociclib (first compound 2 µM) it was 0.301; with VX-702 + Luminespib (first compound 0.02 µM) it was 0.899; with VX-702 + Luminespib (first compound 0.2 µM), 0.822; with VX-702 + Luminespib (first compound 0.6325 µM) it was 0.878. Also, the relative viability with VX-702 + Luminespib (first compound 2 µM) came to 0.942; in the assay with VX-702 + Phenformin (first compound 0.02 µM), 0.235; with VX-702 + Phenformin (first compound 0.2 µM) it was 0.189; with VX-702 + Phenformin (first compound 0.6325 µM) it was 0.224; with VX-702 + Phenformin (first compound 2 µM), 0.214.

As for HCC-78, the relative viability with Dabrafenib + Lapatinib (first compound 0.009487 µM) is 0.697; with Dabrafenib + Lapatinib (first compound 0.03 µM) it was 0.702; with Dabrafenib + Lapatinib (first compound 0.09487 µM) it was 0.754; with Dabrafenib + Lapatinib (first compound 0.3 µM), 0.838; with VX-702 + Palbociclib (first compound 0.02 µM), 0.493; with VX-702 + Palbociclib (first compound 0.2 µM), 0.486. Moreover, the relative viability stood at 0.513 with VX-702 + Palbociclib (first compound 0.6325 µM); 0.487 with VX-702 + Palbociclib (first compound 2 µM); 0.63 in the assay with VX-702 + Phenformin (first compound 0.02 µM); 0.823 with VX-702 + Phenformin (first compound 0.2 µM); 0.689 with VX-702 + Phenformin (first compound 0.6325 µM); 0.676 in the assay with VX-702 + Phenformin (first compound 2 µM).

Consider HCC-366, for which the relative viability with Dabrafenib + Lapatinib (first compound 0.009487 µM) turned out to be 1.08; in the assay with Dabrafenib + Lapatinib (first compound 0.03 µM) it was 0.776; with Dabrafenib + Lapatinib (first compound 0.09487 µM), 1.05; with Dabrafenib + Lapatinib (first compound 0.3 µM), 1.2; in the assay with VX-702 + Palbociclib (first compound 0.02 µM), 0.409; in the assay with VX-702 + Palbociclib (first compound 0.2 µM), 0.412. The relative viability in the assay with VX-702 + Palbociclib (first compound 0.6325 µM) was 0.389; in the assay with VX-702 + Palbociclib (first compound 2 µM) it was 0.333; in the assay with VX-702 + Phenformin (first compound 0.02 µM) it was 0.594; with VX-702 + Phenformin (first compound 0.2 µM) it was 0.62; in the assay with VX-702 + Phenformin (first compound 0.6325 µM) it was 0.679; in the assay with VX-702 + Phenformin (first compound 2 µM) it was 0.5.

On to IA-LM, for which the relative viability in the assay with Dabrafenib + Lapatinib (first compound 0.003 µM) stood at 0.774; with Dabrafenib + Lapatinib (first compound 0.009487 µM) it was 0.7; with Dabrafenib + Lapatinib (first compound 0.03 µM), 0.835; in the assay with Dabrafenib + Lapatinib (first compound 0.09487 µM), 0.689; in the assay with Dabrafenib + Lapatinib (first compound 0.3 µM) it was 0.464.

As for LCLC-103H, the relative viability with VX-702 + Palbociclib (first compound 0.02 µM) was 0.459; with VX-702 + Palbociclib (first compound 0.2 µM), 0.498; with VX-702 + Palbociclib (first compound 0.6325 µM), 0.439; in the assay with VX-702 + Palbociclib (first compound 2 µM), 0.434; with VX-702 + Luminespib (first compound 0.02 µM), 0.975; with VX-702 + Luminespib (first compound 0.2 µM) it was 0.888. In addition, the relative viability is 1 with VX-702 + Luminespib (first compound 0.6325 µM); 0.986 in the assay with VX-702 + Luminespib (first compound 2 µM); 0.344 with VX-702 + Phenformin (first compound 0.02 µM); 0.344 with VX-702 + Phenformin (first compound 0.2 µM); 0.316 in the assay with VX-702 + Phenformin (first compound 0.6325 µM); 0.325 in the assay with VX-702 + Phenformin (first compound 2 µM).

For the cell line NCI-H441, the relative viability with VX-702 + Palbociclib (first compound 0.02 µM) was 0.19; in the assay with VX-702 + Palbociclib (first compound 0.2 µM), 0.235; with VX-702 + Palbociclib (first compound 0.6325 µM) it was 0.204; with VX-702 + Palbociclib (first compound 2 µM) it was 0.162; with VX-702 + Luminespib (first compound 0.02 µM) it was 0.368; with VX-702 + Luminespib (first compound 0.2 µM) it was 0.326. The relative viability is 0.271 with VX-702 + Luminespib (first compound 0.6325 µM); 0.411 with VX-702 + Luminespib (first compound 2 µM); 0.829 with VX-702 + Phenformin (first compound 0.02 µM); 0.992 with VX-702 + Phenformin (first compound 0.2 µM); 0.687 with VX-702 + Phenformin (first compound 0.6325 µM); 0.918 in the assay with VX-702 + Phenformin (first compound 2 µM).

For the cell line NCI-H522, the relative viability is 1.12 in the assay with VX-702 + Palbociclib (first compound 0.02 µM); 0.988 in the assay with VX-702 + Palbociclib (first compound 0.2 µM); 0.83 with VX-702 + Palbociclib (first compound 0.6325 µM); 1.08 with VX-702 + Palbociclib (first compound 2 µM); 0.868 with VX-702 + Luminespib (first compound 0.02 µM); 1.11 with VX-702 + Luminespib (first compound 0.2 µM). In addition, the relative viability with VX-702 + Luminespib (first compound 0.6325 µM) amounted to 1.26; in the assay with VX-702 + Luminespib (first compound 2 µM), 1.2; with VX-702 + Phenformin (first compound 0.02 µM), 0.584; with VX-702 + Phenformin (first compound 0.2 µM), 0.691; with VX-702 + Phenformin (first compound 0.6325 µM), 0.611; with VX-702 + Phenformin (first compound 2 µM), 0.672.

NCI-H596: the relative viability with Dabrafenib + Lapatinib (first compound 0.003 µM) came to 0.994; with Dabrafenib + Lapatinib (first compound 0.009487 µM), 1.11; with Dabrafenib + Lapatinib (first compound 0.03 µM) it was 0.814; in the assay with Dabrafenib + Lapatinib (first compound 0.09487 µM), 1.04; with Dabrafenib + Lapatinib (first compound 0.3 µM), 1.05; in the assay with VX-702 + Luminespib (first compound 0.02 µM), 1.05. The relative viability was 1.1 with VX-702 + Luminespib (first compound 0.2 µM); 1.01 in the assay with VX-702 + Luminespib (first compound 0.6325 µM); 1.11 with VX-702 + Luminespib (first compound 2 µM); 0.587 in the assay with VX-702 + Phenformin (first compound 0.02 µM); 0.749 with VX-702 + Phenformin (first compound 0.2 µM); 0.797 with VX-702 + Phenformin (first compound 0.6325 µM). The relative viability with VX-702 + Phenformin (first compound 2 µM) was 0.742.

Turning to NCI-H1299, the relative viability was 1.01 with Dabrafenib + Lapatinib (first compound 0.003 µM); 0.952 with Dabrafenib + Lapatinib (first compound 0.009487 µM); 0.957 in the assay with Dabrafenib + Lapatinib (first compound 0.03 µM); 0.932 in the assay with Dabrafenib + Lapatinib (first compound 0.09487 µM); 0.824 with Dabrafenib + Lapatinib (first compound 0.3 µM).

For NCI-H1563, the relative viability in the assay with Dabrafenib + Lapatinib (first compound 0.003 µM) stood at 0.831; with Dabrafenib + Lapatinib (first compound 0.009487 µM) it was 1.06; with Dabrafenib + Lapatinib (first compound 0.03 µM), 0.633; with Dabrafenib + Lapatinib (first compound 0.09487 µM), 0.928; in the assay with Dabrafenib + Lapatinib (first compound 0.3 µM), 0.938; with VX-702 + Luminespib (first compound 0.02 µM), 0.528. Also, the relative viability with VX-702 + Luminespib (first compound 0.2 µM) worked out at 0.506; with VX-702 + Luminespib (first compound 0.6325 µM) it was 0.509; with VX-702 + Luminespib (first compound 2 µM) it was 0.479; with VX-702 + Phenformin (first compound 0.02 µM) it was 0.702; with VX-702 + Phenformin (first compound 0.2 µM), 0.684; with VX-702 + Phenformin (first compound 0.6325 µM) it was 0.694. The relative viability with VX-702 + Phenformin (first compound 2 µM) was determined as 0.592.

For the cell line NCI-H1623, the relative viability came to 0.469 in the assay with VX-702 + Luminespib (first compound 0.02 µM); 0.496 in the assay with VX-702 + Luminespib (first compound 0.2 µM); 0.477 with VX-702 + Luminespib (first compound 0.6325 µM); 0.465 with VX-702 + Luminespib (first compound 2 µM); 0.583 with VX-702 + Phenformin (first compound 0.02 µM); 0.469 with VX-702 + Phenformin (first compound 0.2 µM). For the same cell line, the relative viability with VX-702 + Phenformin (first compound 0.6325 µM) was 0.917; with VX-702 + Phenformin (first compound 2 µM), 0.535.

For the cell line NCI-H1648, the relative viability in the assay with VX-702 + Palbociclib (first compound 0.02 µM) is 0.268; in the assay with VX-702 + Palbociclib (first compound 0.2 µM) it was 0.294; with VX-702 + Palbociclib (first compound 0.6325 µM), 0.244; with VX-702 + Palbociclib (first compound 2 µM) it was 0.319.

Turning to NCI-H1703, the relative viability with Dabrafenib + Lapatinib (first compound 0.003 µM) turned out to be 1.2; in the assay with Dabrafenib + Lapatinib (first compound 0.009487 µM) it was 1.6; with Dabrafenib + Lapatinib (first compound 0.03 µM), 0.938; with Dabrafenib + Lapatinib (first compound 0.09487 µM) it was 0.896; with Dabrafenib + Lapatinib (first compound 0.3 µM), 1.09.

In the case of NCI-H2342, the relative viability is 0.511 with VX-702 + Palbociclib (first compound 0.02 µM); 0.606 in the assay with VX-702 + Palbociclib (first compound 0.2 µM); 0.512 with VX-702 + Palbociclib (first compound 0.6325 µM); 0.539 in the assay with VX-702 + Palbociclib (first compound 2 µM); 0.66 with VX-702 + Luminespib (first compound 0.02 µM); 0.848 in the assay with VX-702 + Luminespib (first compound 0.2 µM). Moreover, the relative viability in the assay with VX-702 + Luminespib (first compound 0.6325 µM) was 0.72; in the assay with VX-702 + Luminespib (first compound 2 µM) it was 0.821; with VX-702 + Phenformin (first compound 0.02 µM), 0.594; with VX-702 + Phenformin (first compound 0.2 µM), 0.686; in the assay with VX-702 + Phenformin (first compound 0.6325 µM), 0.58; with VX-702 + Phenformin (first compound 2 µM), 0.719.

The record behind these values is the supplement of paper PMC10307832.
